≈ marks a conversion by molar mass, not a printed value. Where two headings read alike, the source gives them in different places.
Legend:
aquatic insects = settings: cited from earlier work
[1] = system: Spodoptera littoralis larvae (2nd and 4th instars, laboratory strain of cotton leafworm); settings: in vivo
Experimental: (§1) Five concentrations (200, 100, 50, 25, 12.5 ppm) were designed for this synthetic compound and the reference fenoxycarb's compound as the dynamic ingredients based on ppm via diluting the commercial formulation.
(§2) In this experiment, the synthetic compound was tested for its insecticidal bioactivity using the industry-standard leaf dip bioassay techniques. […] Until usage, the stocks were kept in a refrigerator. The target substance test results were noted & the concentrations needed to destroy 50% (LC50) of S. littoralis larvae were calculated. The target compound was employed in five different concentrations, & 0.1% Tween 80 was employed as a surfactant. Castor bean leaf discs (nine centimeters in diameter) were dipped in the concentration under test for ten seconds, then fed to 2th & 4th larvae, which were roughly the same size and housed in glass jars (five pound). Each action carried out 3 times with ten larvae each. The mortality equalized via Abbott's formula. Calculations of mortality setback line were measurably rummage via probity analysis. Harmfulness index was strongminded via sun equations. The mortality results of larval insect were estimated through employing probit analysis through a statistics (LDP-line) equation which estimate the LC50 values with 95% fiducially limits of lower, upper confidence limit and slope.

[2] = system: Spodoptera littoralis larvae (2nd and 4th instars, laboratory strain of cotton leafworm); experiment: Insecticidal leaf dip bioassay screening; settings: for Toxicity index %: fenoxycarb's LC50/compound's LC50 * 100; for LC50: Spodoptera littoralis, in Gossypium hirsutum, foliar, 72 h
Experimental: as §1, §2

[3] = read-out: LC50 (mg/L) at 95%, 2nd instar larvae, after 72 hours of treatment, leaf dip
[4] = read-out: LC50 (mg/L) at 95%, 4th instar larvae, after 72 hours of treatment, leaf dip

Structure (SMILES): CCc1ccc(C(=O)NN(C(=O)c2cc(C)cc(C)c2)C(C)(C)C)cc1 [tebufenozide]
- LC50 (aquatic insects): 100 to 1000 µg/mL

Structure (SMILES): O=Cc1ccc(OCC(O)COc2ccc(C=O)cc2)cc1 [Compound 1, 4,4′-[(2-hydroxypropane-1,3-diyl)bis(oxy)]dibenzaldehyde]
- LC50 (mg/L) at 95% [1]: about 25.62 mg/L
- Toxicity index % ([2]; 2nd instar larvae, 72 hours): 22.93%
- Toxicity index % ([2]; 4th instar larvae, 72 hours): 69.54%
- LC50 [2, 3]: 25.6 mg/L (≈ 85.3 µM)
- LC50 [2, 4]: ~86.1 mg/L (≈ 287 µM)
- activity against Spodoptera littoralis (in words) ([2]; compared with the reference insecticide Fenoxycarb, 72 hours): active against Spodoptera littoralis

Structure (SMILES): CCOC(=O)NCCOc1ccc(Oc2ccccc2)cc1 [fenoxycarb, reference compound]
- LC50 [2, 3]: 5.94 mg/L (≈ 19.7 µM)
- LC50 [2, 4]: 59.9 mg/L (≈ 199 µM)
